Measured values taken from patent publication US8217060B2, “Benzimidazole derivatives useful as TRP M8 receptor modulators” (Janssen Pharmaceutica, NV, priority 2009, dated 2012).
Counter-ions that a name gives are not always drawn.

Molecular target: T1, canine TRPM8 (Canis lupus familiaris, UniProt Q1A7N1)
T1 construct: expressed in transfected cells
Assay: In Vitro Canine TRPM8 Functional Assay (icilin-induced intracellular Ca2+ fluorescence, FLIPR/FDSS)
Type: cell-based
Conditions: HEK293 cells stably expressing canine TRPM8; for inhibition at 0.2 µM: 0.2 μM test compound, icilin challenge; for IC50: icilin challenge (~80% maximal response), eight-point dose-response
Procedure: The functional activity of representative compounds of the formula (I) of the present invention were measured by measuring changes in intracellular calcium concentration using a Ca^2+-sensitive fluorescent dye. The changes in fluorescent signal were monitored by a fluorescence plate reader, either a FLIPR™ (Molecular Devices) or FDSS (Hamamatsu).
HEK293 cells stably expressing canine TRPM8 were routinely grown as monolayers in Dulbecco's minimum essential medium supplemented with 10% FBS, 2 mM L-glutamine, 100 units/mL penicillin, 100 ug/mL streptomycin and 400 μg/mL G418. Cells were maintained in 5% CO2 at 37° C. At 24 hrs prior to assay, cells were seeded in black wall, clear-base poly-D-lysine coated 384-well plates (BD Biosciences, NJ, USA) at a density of 5,000 cells per well in culture medium and grown overnight in 5% CO2 at 37° C. On assay day, growth media was removed and cells were loaded with Calcium 3 Dye (Molecular Devices) for 35 min at 37° C., under 5% CO2 and then for 25 min at room temperature and atmosphere. Subsequently, cells were tested for agonist-induced increases in intracellular Ca^2+ levels using FLIPR™ or FDSS. Cells were challenged with compounds of the formula (I) (at varying concentrations) and intracellular Ca^2+ was measured for 5 min prior to the addition of icilin to all wells to achieve a final concentration that produces approximately an 80% maximal response.
Basal FI was subtracted prior to normalizing data to percent of maximal response. Curves were generated using the average of quadruplicate wells for each data point, were analyzed using nonlinear regression of either sigmoidal dose response or sigmoidal dose response (variable slope). Finally, the EC50 and IC50 values were calculated with the best-fit dose curve determined by GraphPad Prism

T1 sequence (Q1A7N1 1-1104): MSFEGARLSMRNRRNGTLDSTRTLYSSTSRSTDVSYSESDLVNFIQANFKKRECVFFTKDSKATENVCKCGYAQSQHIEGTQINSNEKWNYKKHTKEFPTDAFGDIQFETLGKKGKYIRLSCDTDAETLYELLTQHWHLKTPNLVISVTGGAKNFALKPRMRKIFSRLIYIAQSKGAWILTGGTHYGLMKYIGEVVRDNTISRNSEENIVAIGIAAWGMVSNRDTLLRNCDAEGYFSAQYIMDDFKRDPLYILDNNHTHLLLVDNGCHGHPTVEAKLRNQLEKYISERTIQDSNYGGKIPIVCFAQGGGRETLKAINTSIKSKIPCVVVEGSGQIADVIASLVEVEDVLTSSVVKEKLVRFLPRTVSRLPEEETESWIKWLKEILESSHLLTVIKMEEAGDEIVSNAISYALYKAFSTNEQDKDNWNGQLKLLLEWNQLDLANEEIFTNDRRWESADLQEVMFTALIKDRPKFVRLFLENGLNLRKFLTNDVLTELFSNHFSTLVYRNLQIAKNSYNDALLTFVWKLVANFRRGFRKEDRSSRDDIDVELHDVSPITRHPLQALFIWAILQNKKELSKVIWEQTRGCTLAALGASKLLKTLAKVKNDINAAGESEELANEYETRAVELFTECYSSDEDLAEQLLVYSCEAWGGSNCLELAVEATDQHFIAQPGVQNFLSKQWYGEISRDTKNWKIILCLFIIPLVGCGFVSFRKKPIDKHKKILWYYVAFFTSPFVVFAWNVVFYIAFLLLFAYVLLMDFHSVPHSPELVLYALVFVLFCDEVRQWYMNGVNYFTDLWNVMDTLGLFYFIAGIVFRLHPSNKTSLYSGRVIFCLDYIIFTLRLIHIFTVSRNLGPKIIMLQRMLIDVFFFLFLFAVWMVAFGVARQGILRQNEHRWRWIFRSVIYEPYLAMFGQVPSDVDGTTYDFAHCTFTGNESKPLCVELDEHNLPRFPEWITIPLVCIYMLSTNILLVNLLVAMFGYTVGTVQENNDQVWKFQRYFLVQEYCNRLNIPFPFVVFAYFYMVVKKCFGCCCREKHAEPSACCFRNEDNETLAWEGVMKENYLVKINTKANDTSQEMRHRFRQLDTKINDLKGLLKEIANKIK

inhibition at 0.2 µM | IC50 | Compound
96% | 110 nM | C(=CC1CCCCC1)c1nc2cc(-c3ccccc3)ccc2[nH]1 [Compound 2, 2-(2-Cyclohexyl-vinyl)-5-phenyl-1H-benzimidazole]
103% | 7 nM | Cc1ccccc1-c1ccc2[nH]c(C=CC3CCCCC3)nc2c1 [Compound 3, 2-(2-Cyclohexyl-vinyl)-5-o-tolyl-1H-benzimidazole]
103% | 3 nM | FC(F)(F)COc1ccccc1-c1ccc2[nH]c(C=CC3CCCCC3)nc2c1 [Compound 4, 2-(2-Cyclohexyl-vinyl)-5-[2-(2,2,2-trifluoro-ethoxy)-phenyl]-1H-benzimidazole]
18% | – | Oc1cccc(-c2ccc3[nH]c(C=CC4CCCCC4)nc3c2)c1 [Compound 5, 3-[2-(2-Cyclohexyl-vinyl)-1H-benzimidazol-5-yl]-phenol]
103% | 12 nM | OCc1ccccc1-c1ccc2[nH]c(/C=C/C3CCCCC3)nc2c1 [Compound 6]
103% | 34 nM | CC1(c2ccccc2-c2ccc3[nH]c(C=CC4CCCCC4)nc3c2)OCCO1 [Compound 7, 2-(2-Cyclohexyl-vinyl)-5-[2-(2-methyl-[1,3]dioxolan-2-yl)-phenyl]-1H-benzimidazole]
97% | 41 nM | CC(=O)c1ccccc1-c1ccc2[nH]c(C=CC3CCCCC3)nc2c1 [Compound 8, 1-{2-[2-(2-Cyclohexyl-vinyl)-1H-benzimidazol-5-yl]-phenyl}-ethanone]
101% | 11 nM | Fc1ccc(Cl)c(-c2ccc3[nH]c(C=CC4CCCCC4)nc3c2)c1 [Compound 9, 5-(2-Chloro-5-fluoro-phenyl)-2-(2-cyclohexyl-vinyl)-1H-benzimidazole]
101% | 6 nM | Fc1cccc(Cl)c1-c1ccc2[nH]c(C=CC3CCCCC3)nc2c1 [Compound 10, 5-(2-Chloro-6-fluoro-phenyl)-2-(2-cyclohexyl-vinyl)-1H-benzimidazole]
102% | 32 nM | COc1cccc(F)c1-c1ccc2[nH]c(C=CC3CCCCC3)nc2c1 [Compound 11, 2-(2-Cyclohexyl-vinyl)-5-(2-fluoro-6-methoxy-phenyl)-1H-benzimidazole]
92% | 39 nM | COc1cc(F)ccc1-c1ccc2[nH]c(C=CC3CCCCC3)nc2c1 [Compound 12, 2-(2-Cyclohexyl-vinyl)-5-(4-fluoro-2-methoxy-phenyl)-1H-benzimidazole]
95% | 2 nM | COc1cccc(OC)c1-c1ccc2[nH]c(C=CC3CCCCC3)nc2c1 [Compound 14, 2-(2-Cyclohexyl-vinyl)-5-(2,6-dimethoxy-phenyl)-1H-benzimidazole]
102% | 28 nM | Fc1cccc(F)c1-c1ccc2[nH]c(C=CC3CCCCC3)nc2c1 [Compound 15, 2-(2-Cyclohexyl-vinyl)-5-(2,6-difluoro-phenyl)-1H-benzimidazole]
102% | 14 nM | Fc1ccccc1-c1ccc2[nH]c(C=CC3CCCCC3)nc2c1 [Compound 16, 2-(2-Cyclohexyl-vinyl)-5-(2-fluoro-phenyl)-1H-benzimidazole]
102% | 17 nM | Cc1ccsc1-c1ccc2[nH]c(C=CC3CCCCC3)nc2c1 [Compound 17, 2-(2-Cyclohexyl-vinyl)-5-(3-methyl-thiophen-2-yl)-1H-benzimidazole]
101% | 32 nM | COc1ccc(Cl)c(-c2ccc3[nH]c(C=CC4CCCCC4)nc3c2)c1 [Compound 18, 5-(2-Chloro-5-methoxy-phenyl)-2-(2-cyclohexyl-vinyl)-1H-benzimidazole]
86% | 34 nM | Clc1ccc(Cl)c(-c2ccc3[nH]c(C=CC4CCCCC4)nc3c2)c1 [Compound 19, 2-(2-Cyclohexyl-vinyl)-5-(2,5-dichloro-phenyl)-1H-benzimidazole]
85% | 53 nM | COc1ccc(Cl)cc1-c1ccc2[nH]c(C=CC3CCCCC3)nc2c1 [Compound 20, 5-(5-Chloro-2-methoxy-phenyl)-2-(2-cyclohexyl-vinyl)-1H-benzimidazole]

inhibition at 0.2 µM | IC50 | Compound
101% | 31 nM | Fc1ccc(F)c(-c2ccc3[nH]c(C=CC4CCCCC4)nc3c2)c1 [Compound 22, 2-(2-Cyclohexyl-vinyl)-5-(2,5-difluoro-phenyl)-1H-benzimidazole]
85% | 97 nM | Fc1ccccc1-c1ccc2[nH]c(C=CC3CCCC3)nc2c1 [Compound 24, 2-(2-Cyclopentyl-vinyl)-5-(2-fluoro-phenyl)-1H-benzimidazole]
102% | 13 nM | Cc1ccsc1-c1ccc2[nH]c(C=CC3CCCC3)nc2c1 [Compound 25, 2-(2-Cyclopentyl-vinyl)-5-(3-methyl-thiophen-2-yl)-1H-benzimidazole]
100% | 33 nM | FC(F)(F)Oc1ccccc1-c1ccc2nc(C=CC3CCCC3)[nH]c2c1 [Compound 26, 2-(2-Cyclopentyl-vinyl)-5-(2-trifluoromethoxy-phenyl)-1H-benzimidazole]
100% | 47 nM | N#Cc1ccccc1-c1ccc2[nH]c(C=CC3CCCC3)nc2c1 [Compound 27, 2-[2-(2-Cyclopentyl-vinyl)-1H-benzimidazol-5-yl]-benzonitrile]
95% | 42 nM | OCc1ccccc1-c1ccc2[nH]c(C=CC3CCCC3)nc2c1 [Compound 28, {2-[2-(2-Cyclopentyl-vinyl)-1H-benzimidazol-5-yl]-phenyl}-methanol]
77% | 170 nM | CC(=O)c1ccccc1-c1ccc2[nH]c(C=CC3CCCC3)nc2c1 [Compound 29, 1-{2-[2-(2-Cyclopentyl-vinyl)-1H-benzimidazol-5-yl]-phenyl}-ethanone]
102% | 6 nM | FC1=CCC(C=Cc2nc3cc(-c4ccccc4C(F)(F)F)ccc3[nH]2)CC1 (stereo not drawn) [Compound 31, 2-[2-(4-Fluoro-cyclohex-3-enyl)-vinyl]-5-(2-trifluoromethyl-phenyl)-1H-benzimidazole]
101% | 5.2 nM | FC1=CCC(C=Cc2nc3cc(-c4ccccc4OC(F)(F)F)ccc3[nH]2)CC1 (stereo not drawn) [Compound 32, 2-[2-(4-Fluoro-cyclohex-3-enyl)-vinyl]-5-(2-trifluoromethoxy-phenyl)-1H-benzoimidazole hydrochloride salt]
101% | 9 nM | COc1ccc(F)cc1-c1ccc2[nH]c(C=CC3CC=C(F)CC3)nc2c1 (stereo not drawn) [Compound 33, 2-[2-(4-Fluoro-cyclohex-3-enyl)-vinyl]-5-(5-fluoro-2-methoxy-phenyl)-1H-benzoimidazole hydrochloride salt]
101% | 5 nM | FC1=CCC(C=Cc2nc3cc(-c4ccccc4Cl)ccc3[nH]2)CC1 (stereo not drawn) [Compound 34, 5-(2-Chloro-phenyl)-2-[2-(4-fluoro-cyclohex-3-enyl)-vinyl]-1H-benzoimidazole hydrochloride salt]
100% | 4 nM | Cc1cccc(C)c1-c1ccc2[nH]c(C=CC3CC=C(F)CC3)nc2c1 (stereo not drawn) [Compound 35, 5-(2,6-Dimethyl-phenyl)-2-[2-(4-fluoro-cyclohex-3-enyl)-vinyl]-1H-benzoimidazole hydrochloride salt]
100% | 16 nM | FC1=CCC(C=Cc2nc3cc(-c4ccccc4F)ccc3[nH]2)CC1 (stereo not drawn) [Compound 36, 2-[2-(4-Fluoro-cyclohex-3-enyl)-vinyl]-5-(2-fluoro-phenyl)-1H-benzoimidazole hydrochloride salt]
100% | 8 nM | FC1(F)CCC(C=Cc2nc3cc(-c4ccccc4OC(F)(F)F)ccc3[nH]2)CC1 [Compound 37, 2-[2-(4,4-Difluoro-cyclohexyl)-vinyl]-5-(2-trifluoromethoxy-phenyl)-1H-benzoimidazole hydrochloride salt]
101% | 3.5 nM | FC1(F)CCC(C=Cc2nc3cc(-c4ccccc4Cl)ccc3[nH]2)CC1 [Compound 38, 5-(2-Chloro-phenyl)-2-[2-(4,4-difluoro-cyclohexyl)-vinyl]-1H-benzoimidazole hydrochloride salt]
101% | 9 nM | Fc1ccccc1-c1ccc2[nH]c(C=CC3CCC(F)(F)CC3)nc2c1 [Compound 39, 2-[2-(4,4-Difluoro-cyclohexyl)-vinyl]-5-(2-fluoro-phenyl)-1H-benzoimidazole hydrochloride salt]
101% | 2 nM | COc1cccc(OC)c1-c1ccc2[nH]c(C=CC3CC=C(F)CC3)nc2c1 (stereo not drawn) [Compound 40, 5-(2,6-Dimethoxy-phenyl)-2-[2-(4-fluoro-cyclohex-3-enyl)-vinyl]-1H-benzoimidazole hydrochloride salt]
